Molecules are shown by their SMILES.

For this assay, the target named is T1, human KSP motor domain (KSP(367H)) (Homo sapiens, UniProt P52732).
T1 construct: were used to amplify the motor domain and the neck linker region; made in house; host or cells: E. coli BL21 (DE3), pRSETa
T1 sequence (P52732 18-359 limits assumed): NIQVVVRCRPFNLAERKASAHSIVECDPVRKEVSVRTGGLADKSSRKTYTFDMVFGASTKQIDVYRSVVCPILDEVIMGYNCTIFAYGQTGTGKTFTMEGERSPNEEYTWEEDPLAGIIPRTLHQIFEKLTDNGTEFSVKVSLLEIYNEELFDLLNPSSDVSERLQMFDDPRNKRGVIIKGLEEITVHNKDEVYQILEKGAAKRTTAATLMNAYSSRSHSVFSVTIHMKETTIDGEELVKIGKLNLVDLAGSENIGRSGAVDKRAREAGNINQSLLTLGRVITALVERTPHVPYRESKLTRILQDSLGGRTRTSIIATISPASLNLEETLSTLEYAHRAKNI
Nature of the assay: Kinesin ATPase In Vitro Assay. The assay is classed as biochemical. Conditions: kinesin motor domain with microtubules, 1 mM ATP, 23° C.; free phosphate by quinaldine red/ammonium molybdate, absorbance 540 nm. An excerpt: I. Kinesin ATPase In Vitro Assay
Cloning and Expression of Human Poly-Histidine Tagged KSP Motor Domain (KSP(367H))
Plasmids for the expression of the human KSP motor domain construct were cloned by PCR using a pBluescript full length human KSP construct (Blangy et al., Cell, vol. 83, pp1159-1169, 1995) as a template. The N-terminal primer 5′-[…] (SEQ.ID.NO.: 1) and the C-terminal primer 5′-[…] […] (SEQ.ID.NO.: 2) were used to amplify the motor domain and the neck linker region. The PCR products were digested with AseI and XhoI, ligated into the NdeI/XhoI digestion product of pRSETa (Invitrogen) and transformed into E. coli BL21 (DE3).
Cells were grown at 37° C. to an OD600 of 0.5. After cooling the culture to room temperature expression of KSP was induced with 100 μM IPTG and incubation was continued overnight. Cells were pelleted by centrifugation and washed once with ice-cold PBS. Pellets were flash-frozen and stored −80° C.
Cell pellets were thawed on ice and resuspended in lysis buffer (50 mM K-HEPES, pH 8.0, 250 mM KCl, 0.1% Tween, 10 mM imidazole, 0.5 mM Mg-ATP, 1 mM PMSF, 2 mM benzimidine, 1× complete protease inhibitor cocktail (Roche)). Cell suspensions were incubated with 1 mg/ml lysozyme and 5 mM β-mercaptoethanol on ice for 10 minutes, followed by sonication (3×30 sec). All subsequent procedures were performed at 4° C. Lysates were centrifuged at 40,000×g for 40 minutes. Supernatants were diluted and loaded onto an SP Sepharose column (Pharmacia, 5 ml cartridge) in buffer A (50 mM K-HEPES, pH 6.8, 1 mM MgCl2, 1 mM EGTA, 10 μM Mg-ATP, 1 mM DTT) and eluted with a 0 to 750 mM KCl gradient in buffer A. Fractions containing KSP were pooled and incubated with Ni-NTA resin (Qiagen) for one hour. The resin was washed three times with buffer B (Lysis buffer minus PMSF and protease inhibitor cocktail), followed by three 15-minute incubations and washes with buffer B. Finally, the resin was incubated and washed for 15 minutes three times with buffer C (same as buffer B except for pH 6.0) and poured into a column. […]
The kinesin motor domain is incubated with microtubules, 1 mM ATP (1:1 MgCl2:Na-ATP), and compound at 23° C. in buffer containing 80 mM K-HEPES (pH 7.0), 1 mM EGTA, 1 mM DTT, 1 mM MgCl2, and 50 mM KCl. […] Free phosphate from the ATP hydrolysis reaction is measured via a quinaldine red/ammonium molybdate assay by adding 150 μl of quench C buffer containing a 2:1 ratio of quench A:quench B. Quench A contains 0.1 mg/ml quinaldine red and 0.14% polyvinyl alcohol; quench B contains 12.3 mM ammonium molybdate tetrahydrate in 1.15 M sulfuric acid. The reaction is incubated for 10 minutes at 23° C., and the absorbance of the phospho-molybdate complex is measured at 540 nm.
On to `CCC(c1nc2ncccc2c(=O)n1Cc1ccccc1)N(CCN(C)C)C(=O)c1ccc(Br)cc1` (stereo not shown) [Compound 1-6, N-[1-(3-benzyl-4-oxo-3,4-dihydropyrido[2,3-d]pyrimidin-2-yl)propyl]-4-bromo-N-[2-(dimethylamino)ethyl]benzamide], for which the IC50 was not above 50 µM.
In the case of `CCC(c1nc2cnccc2c(=O)n1Cc1ccccc1)N(CCN(C)C)C(=O)c1ccc(Br)cc1` (racemic) [Compound 3-7, 2-[1′-(N-4-bromobenzoyl)-(N,N-dimethylethylenediamino)propyl]-3-benzyl-pyrido[3,4-d]pyrimidin-4(3H)-one], the concentration for half-maximal inhibition (IC50) is not above 50 µM.
As for `CCC(c1nc2c(c(=O)n1Cc1ccccc1)CCCN2)N(CCN(C)C)C(=O)c1ccc(Br)cc1` (stereo not shown) [Compound 2-2, N-[1-(3-benzyl-4-oxo-3,4,5,6,7,8-hexahydropyrido[2,3-d]pyrimidin-2-yl)propyl]4-bromo-N-[2-(dimethylamino)ethyl]benzamide], the figure is not above 50 µM; as for `CCC(c1nc2cccnc2c(=O)n1Cc1ccccc1)N(CCN(C)C)C(=O)c1ccc(Br)cc1` (stereo not shown) [Compound 5-6, N-[1-(3-benzyl-4-oxo-3,4-dihydropyrido[3,2-d]pyrimidin-2-yl)propyl]-4-bromo-N-[2-(dimethylamino)ethyl]benzamide], not above 50 µM.

By IC50 is commonly meant the concentration that inhibits the measured activity by half. High values mean weaker potency, low ones greater potency.

The values are drawn from patent US20050203110A1, “Mitotic kinesin inhibitors” (priority 2002, published 2005).
